Test results published in patent publication US10344019B2 (priority 2010, dated 2019).
Read-outs that look alike come from different tables or passages of the source.

How the values were obtained:
Format in all cases: cell-based
[1] = test system: HCV 1b RLuc cells (dicistronic genotype 1b Con1 replicon, RLuc reporter); experiment: microbe, parasite or virus in culture; conditions: Hepatitis C virus, read-out: 1b (nM)
Method in brief: (§1)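 Replicon cells stably carrying the listed RLuc-encoding dicistronic replicons were seeded and treated with DMSO serial dilutions of compound (10 mM stocks) diluted into culture medium. After 72 h, cells were lysed and Renilla luciferase activity measured. EC50 was derived by non-linear regression.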

[2] = test system: HCV 1a RLuc cells (dicistronic genotype 1a H77 replicon, RLuc reporter); experiment: microbe, parasite or virus in culture; conditions: Hepatitis C virus, read-out: 1a
Method in brief: as §1

[3] = test system: HCV 4a Rluc cells (NS5A chimeric genotype 1b Con1 replicon with genotype 4a NS5A gene); experiment: microbe, parasite or virus in culture; conditions: Hepatitis C virus, read-out: 4a
Method in brief: as §1

[4] = test system: HCV 2a JFH-1 Rluc cells (dicistronic genotype 2a JFH-1 replicon, RLuc reporter); experiment: microbe, parasite or virus in culture; conditions: Hepatitis C virus, read-out: 2a JFH
Method in brief: as §1

[5] = test system: HCV 3a RLuc cells (NS5A chimeric genotype 1b Con1 replicon with consensus genotype 3a NS5A gene); experiment: microbe, parasite or virus in culture; conditions: Hepatitis C virus
Method in brief: as §1

[6] = test system: HCV 2b Rluc cells (NS5A chimeric genotype 2a JFH-1 replicon with genotype 2b MD2b-1 NS5A gene, M31 present); experiment: microbe, parasite or virus in culture; conditions: Hepatitis C virus, read-out: 2b
Method in brief: as §1

[7] = test system: HCV 2a Rluc cells (NS5A chimeric genotype 2a JFH-1 replicon with genotype 2a J6 strain NS5A gene, M31 present); experiment: HCV replicon reporter assay, genotype 2a J6 (M31 present); conditions: Hepatitis C virus, read-out: 2a J6
Method in brief: as §1

[8] = test system: Q30R in genotype 1a NS5A, 1a Rluc replicon transfected into Huh-7 cured-51 cells; experiment: HCV replicon assay, resistance mutant 1a Q30R; conditions: Hepatitis C virus, Huh-7, read-out: 1a Q30R
Method in brief: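 Q30R introduced into genotype 1a H77 RLuc replicon by site-directed mutagenesis; replicon RNA transfected into Huh-7 cured-51 cells.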

[9] = read-out: 3a, genotype 3a replicon
[10] = genotype 2a JFH-1 RLuc replicon
[11] = read-out: 3a, genotype 3a NS5A chimeric replicon

| Structure (SMILES) | EC50 [1] | EC50 ([2]; genotype 1a replicon) | EC50 [3] | EC50 ([4]; genotype 2a JFH-1 replicon) | EC50 [5, 9] | EC50 [6] | EC50 [7] | EC50 [8] | EC50 ([2]; genotype 1a H77 RLuc replicon) | EC50 [4, 10] | EC50 [5, 11] |
| --- | --- | --- | --- | --- | --- | --- | --- | --- | --- | --- | --- |
| COC(=O)N[C@H](C(=O)N1CCC[C@H]1c1nc2ccc3cc4c(cc3c2[nH]1)OCc1cc(-c2cnc([C@@H]3CCCN3C(=O)[C@H](NC(=O)OC)c3ccccc3)[nH]2)ccc1-4)C(C)C [Example 426] | 0.033 nM | 0.001 to 0.999 nM | 0.001 to 0.99 nM | 0.001 to 0.999 nM | 0.001 to 0.99 nM | 0.001 to 0.999 nM | 0.001 to 0.999 nM | 0.001 to 0.999 nM |  |  |  |
| COC[C@H]1CC(c2nc3ccc4cc(-c5ccc(-c6cnc([C@@H]7CCCN7C(=O)[C@H](NC(=O)C7CC7)c7ccccc7)[nH]6)cc5)ccc4c3[nH]2)N(C(=O)[C@@H](NC(=O)OC)C(C)C)C1 (stereo in doubt) [Example 425] | 0.034 nM | 0.001 to 0.999 nM | 0.001 to 0.99 nM | 0.001 to 0.999 nM | 0.001 to 0.99 nM | 0.001 to 0.999 nM | 0.001 to 0.999 nM | 0.001 to 0.999 nM |  |  |  |
| COC[C@H]1C[C@@H](c2nc3ccc4cc(-c5ccc6c(ccc7nc([C@@H]8C[C@H]9C[C@H]9N8C(=O)[C@@H](NC(=O)OC)C(C)C)[nH]c76)c5)ccc4c3[nH]2)N(C(=O)[C@H](NC(=O)OC)c2ccccc2)C1 [Example 472] | 0.01 nM | 0.001 to 0.999 nM | 0.001 to 0.99 nM | 0.001 to 0.999 nM | 0.001 to 0.99 nM | 0.001 to 0.999 nM | 0.001 to 0.999 nM | 0.001 to 0.999 nM |  |  |  |
| COC[C@H]1C[C@@H](c2nc3ccc4cc5c(cc4c3[nH]2)OCc2cc(-c3cnc([C@@H]4C[C@H](C)CN4C(=O)[C@@H](NC(=O)OC)C(C)C)[nH]3)ccc2-5)N(C(=O)[C@@H](NC(=O)OC)C(C)C)C1 [Example 562] | 0.019 nM |  | 0.001 to 0.99 nM |  |  | 0.001 to 0.999 nM | 0.001 to 0.999 nM | 0.001 to 0.999 nM | 0.001 to 0.999 nM | 0.001 to 0.999 nM | 0.001 to 0.99 nM |
| COC(=O)N[C@H](C(=O)N1C[C@@H](C)C[C@H]1c1ncc(-c2ccc3c(c2)COc2cc4c(ccc5nc([C@@H]6C[C@H](C)CN6C(=O)[C@H](NC(=O)OC)c6ccccc6)[nH]c54)cc2-3)[nH]1)C(C)C [Example 582] | 0.01 nM |  | 0.001 to 0.99 nM |  |  | 0.001 to 0.999 nM | 0.001 to 0.999 nM | 0.001 to 0.999 nM | 0.001 to 0.999 nM | 0.001 to 0.999 nM | 0.001 to 0.99 nM |
| COC(=O)N[C@H](C(=O)N1C[C@@H](C)C[C@H]1c1nc2ccc3cc4c(cc3c2[nH]1)OCc1cc(-c2cnc([C@@H]3CCCN3C(=O)[C@H](NC(=O)OC)c3ccccc3)[nH]2)ccc1-4)C(C)C [Example 565] | 0.017 nM |  | 0.001 to 0.99 nM |  |  | 0.001 to 0.999 nM | 0.001 to 0.999 nM | 0.001 to 0.999 nM | 0.001 to 0.999 nM | 0.001 to 0.999 nM | 0.001 to 0.99 nM |
| COC(=O)N[C@H](C(=O)N1CCC[C@H]1c1nc2ccc3cc(-c4ccc5c(ccc6nc([C@@H]7[C@@H]8CC[C@@H](C8)N7C(=O)[C@@H](NC(=O)OC)C(C)C)[nH]c65)c4)ccc3c2[nH]1)C(C)C [Example 339] | 0.026 nM | 0.001 to 0.999 nM | 0.001 to 0.99 nM | 0.001 to 0.999 nM | 0.001 to 0.99 nM | 1 to 44 nM | 0.001 to 0.999 nM | 1 to 44 nM |  |  |  |
| COC[C@H]1C[C@@H](c2ncc(-c3ccc4c(c3)COc3cc5c(ccc6nc([C@@H]7CCCN7C(=O)[C@@H](NC(=O)OC)C(C)C)[nH]c65)cc3-4)[nH]2)N(C(=O)[C@H](NC(=O)OC)c2ccccc2)C1 [Example 590] | 0.014 nM |  | 0.001 to 0.99 nM |  |  | 0.001 to 0.999 nM | 0.001 to 0.999 nM | 0.001 to 0.999 nM | 0.001 to 0.999 nM | 0.001 to 0.999 nM | 0.001 to 0.99 nM |
| COC[C@H]1C[C@@H](c2ncc(-c3ccc(-c4ccc(-c5cnc([C@@H]6C[C@H]7C[C@H]7N6C(=O)[C@@H](NC(=O)OC)C(C)C)[nH]5)cc4)cc3)[nH]2)N(C(=O)[C@H](NC(=O)C2CC2)c2ccccc2)C1 [Example 527] | 0.022 nM |  | 0.001 to 0.99 nM |  |  | 0.001 to 0.999 nM | 0.001 to 0.999 nM | 0.001 to 0.999 nM | 0.001 to 0.999 nM | 0.001 to 0.999 nM | 0.001 to 0.99 nM |
| COC[C@H]1C[C@@H](c2nc3ccc4cc(-c5ccc6c(ccc7nc([C@@H]8C[C@H](C)CN8C(=O)[C@@H](NC(=O)OC)C(C)C)[nH]c76)c5)ccc4c3[nH]2)N(C(=O)[C@H](N)c2ccccc2)C1 [Example 545] | 0.075 nM |  | 0.001 to 0.99 nM |  |  | 0.001 to 0.999 nM | 0.001 to 0.999 nM | 0.001 to 0.999 nM | 0.001 to 0.999 nM | 0.001 to 0.999 nM | 0.001 to 0.99 nM |
| COC[C@H]1C[C@@H](c2ncc(-c3cc4c5c(c3)OCc3cc(-c6cnc([C@@H]7CC[C@H](C)N7C(=O)[C@@H](NC(=O)OC)C(C)C)[nH]6)cc(c3-5)OC4)[nH]2)N(C(=O)[C@H](NC(=O)OC)c2ccccc2)C1 [Example 596] | 0.013 nM |  | 0.001 to 0.99 nM |  |  | 0.001 to 0.999 nM | 0.001 to 0.999 nM | 0.001 to 0.999 nM | 0.001 to 0.999 nM | 0.001 to 0.999 nM | 0.001 to 0.99 nM |
| COC[C@H]1C[C@@H](c2nc3ccc4cc(-c5ccc(-c6cnc([C@@H]7CCCN7C(=O)[C@@H](NC(=O)OC)C(C)C)[nH]6)cc5)ccc4c3[nH]2)N(C(=O)[C@H](NC(=O)OC)c2ccccc2)C1 [Example 433] | 0.02 nM | 0.001 to 0.999 nM | 0.001 to 0.99 nM | 0.001 to 0.999 nM | 0.001 to 0.99 nM | 0.001 to 0.999 nM | 0.001 to 0.999 nM | 0.001 to 0.999 nM |  |  |  |
| COC(=O)N[C@H](C(=O)N1[C@@H]2C[C@@H]2C[C@H]1c1ncc(-c2cc3c4c(c2)OCc2cc(-c5cnc([C@@H]6C[C@H]7C[C@H]7N6C(=O)[C@@H](NC(=O)OC)C(C)C)[nH]5)cc(c2-4)OC3)[nH]1)C(C)C [Example 414] | 0.022 nM | 0.001 to 0.999 nM | 0.001 to 0.99 nM | 0.001 to 0.999 nM | 0.001 to 0.99 nM | 1 to 44 nM | 1 to 44 nM | 1 to 44 nM |  |  |  |
| COC(=O)N[C@H](C(=O)N1[C@H]2CC[C@H](C2)[C@H]1c1nc2ccc3cc(-c4ccc(-c5cnc([C@@H]6CCCN6C(=O)[C@H](NC(=O)OC)c6ccccc6)[nH]5)cc4)ccc3c2[nH]1)C(C)C [Example 424] | 0.028 nM | 0.001 to 0.999 nM | 0.001 to 0.99 nM | 0.001 to 0.999 nM | 0.001 to 0.99 nM | 0.001 to 0.999 nM | 0.001 to 0.999 nM | 1 to 44 nM |  |  |  |
| COC(=O)N[C@H](C(=O)N1CCC[C@H]1c1nc2ccc3cc(-c4ccc5c(ccc6nc([C@@H]7[C@H]8CC[C@H](C8)N7C(=O)[C@H](NC(=O)OC)c7ccccc7)[nH]c65)c4)ccc3c2[nH]1)C(C)C [Example 325] | 0.018 nM | 0.001 to 0.999 nM | 0.001 to 0.99 nM | 0.001 to 0.999 nM | 0.001 to 0.99 nM | 1 to 44 nM | 0.001 to 0.999 nM | 1 to 44 nM |  |  |  |
| COC[C@H]1C[C@@H](c2nc3ccc4cc5c(cc4c3[nH]2)OCc2cc(-c3cnc([C@@H]4CCCN4C(=O)[C@@H](NC(=O)OC)C(C)C)[nH]3)ccc2-5)N(C(=O)[C@H](N)c2ccccc2)C1 [Example 571] | 0.114 nM |  | 0.001 to 0.99 nM |  |  | 0.001 to 0.999 nM | 0.001 to 0.999 nM | 0.001 to 0.999 nM | 0.001 to 0.999 nM | 0.001 to 0.999 nM | 0.001 to 0.99 nM |
| COC[C@@H]1C[C@@H](c2nc3ccc4cc(-c5ccc6c(ccc7nc([C@@H]8CCCN8C(=O)[C@@H](NC(=O)OC)C(C)C)[nH]c76)c5)ccc4c3[nH]2)N(C(=O)[C@@H](NC(=O)OC)C(C)C)C1 [Example 397] | 0.017 nM | 0.001 to 0.999 nM | 0.001 to 0.99 nM | 0.001 to 0.999 nM | 0.001 to 0.99 nM | 0.001 to 0.999 nM | 0.001 to 0.999 nM | 0.001 to 0.999 nM |  |  |  |
| COC(=O)N[C@H](C(=O)N1CCC[C@H]1c1nc2ccc3cc4c(cc3c2[nH]1)OCc1cc(-c2cnc([C@@H]3CCCN3C(=O)[C@H](NC(=O)C3CC3)c3ccccc3)[nH]2)ccc1-4)C(C)C [Example 498] | 0.016 nM |  | 0.001 to 0.99 nM |  |  | 0.001 to 0.999 nM | 0.001 to 0.999 nM | 0.001 to 0.999 nM | 0.001 to 0.999 nM | 0.001 to 0.999 nM | 0.001 to 0.99 nM |
| COC[C@H]1C[C@@H](c2nc3ccc4cc(-c5ccc6c(ccc7nc([C@@H]8C[C@H]9C[C@H]9N8C(=O)[C@H](NC(=O)OC)c8ccccc8)[nH]c76)c5)ccc4c3[nH]2)N(C(=O)[C@@H](NC(=O)OC)C(C)C)C1 [Example 548] | 0.006 nM |  | 0.001 to 0.99 nM |  |  | 0.001 to 0.999 nM | 0.001 to 0.999 nM | 0.001 to 0.999 nM | 0.001 to 0.999 nM | 0.001 to 0.999 nM | 0.001 to 0.99 nM |
